The test system of series [8] is PVA-MV@CB[8]. Nature of the series: ITC second guest binding to PVA-MV in the presence of CB[8]. The conditions noted are these: 25° C., 10 mM PBS buffer pH 7.0.
Procedure: ITC titration experiments were carried out on a VP-ITC from Microcal Inc. at 25° C. in 10 mM sodium phosphate buffer (pH=7). In a typical experiment, the host was in the sample cell at a concentration of 0.1 mM, and the guest was in the syringe at a 10 fold higher concentration. In the case of functional polymers, the concentration used is determined from the concentration of functional monomer units in solution and not the concentration of polymer. A titration consisted of 29 consecutive injections of 2-10 mL with at least 300 s intervals between injections. The first data point was removed from the data set prior to curve fitting. Heats of dilution were checked by titration well beyond saturation or by titration of the guest into a buffer solution and subtracted from the normalized enthalpies, but relatively small in all cases. The data were analyzed with Origin 7.0 software, using the one set of sites model.
Isothermal titration calorimetry (ITC) was used for quantitative investigation of the respective binding thermodynamics for the HEC-Np and PVA-MV with CB[8]
Series [1] deals with L929 mouse broblast cells. Conditions: 1 ppm; cited from earlier work.

In patent US11491227B2, “Cucurbituril-based hydrogels” (CAMBRIDGE ENTERPRISE LIMITED, priority 2012, dated 2022) one finds Ka and cytotoxic response data, which are given here for two compounds.

For the compound `Oc1ccc2ccccc2c1` [NpOH, 2-naphthol], the Ka entry in the series on PVA-MV@CB[8] was “(1.10 ± 0.03) × 10^5 M^−1”.

For the compound dibutyltin dilaurate [TDL], the cytotoxic response entry in series [1] is on record as “does not elicit a cytotoxic response”.
